# According to patent US20250382344A1, “Soluble GLP1/GIP/NPY2 Receptor Triple Agonists” (Boehringer Ingelheim International GmH, priority 2024, published 2025):
# Like-named read-outs stand apart in the source and are kept apart here. *1 amine or outer side, *2 acyl side, *3 side chain or, on linkers, in order; H or OH if unused. Where a SMILES comes first, the peptide text is derived from it. Side-chain parts run from the residue outwards. [ ]: non-standard residue; d: D form. The star is where a group is joined. C18 diacid = O=C(O)CCCCCCCCCCCCCCCCC(=O)*; γGlu = O=C(O)[C@H](CCC(=O)[*:2])N[*:1]; εLys = N[C@@H](CCCCN[*:1])C(=O)[*:2]; Aib = CC(C)(N)C(=O)O
# Key:
# hGLP1R = molecular target: T1, hGLP1R (Homo sapiens, UniProt P43220); test: hGLP1R CreLuc assay in 0.5% and 100% plasma (HEK-293 CRE-luciferase reporter cells); format: cell-based; conditions: HEK-293 reporter cells
# T1 construct: expressed in transfected cells; host or cells: HEK-293 CRE-luciferase reporter cells
# T1 sequence (P43220 24-463): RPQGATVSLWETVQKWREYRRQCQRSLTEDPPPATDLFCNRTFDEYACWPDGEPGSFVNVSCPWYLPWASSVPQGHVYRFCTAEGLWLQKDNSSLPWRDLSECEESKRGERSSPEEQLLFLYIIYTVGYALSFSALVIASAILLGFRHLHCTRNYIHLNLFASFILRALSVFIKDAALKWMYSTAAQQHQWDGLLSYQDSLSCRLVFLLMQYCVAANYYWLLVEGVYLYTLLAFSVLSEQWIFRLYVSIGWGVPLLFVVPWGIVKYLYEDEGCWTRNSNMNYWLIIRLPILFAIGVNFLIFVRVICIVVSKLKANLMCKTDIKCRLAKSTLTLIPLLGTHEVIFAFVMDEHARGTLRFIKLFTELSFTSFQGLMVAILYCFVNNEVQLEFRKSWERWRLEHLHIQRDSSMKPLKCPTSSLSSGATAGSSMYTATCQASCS
# hGIPR = molecular target: T2, hGIPR (Homo sapiens, UniProt P48546); test: hGIPR CreLuc assay in 0.5% and 100% plasma (CHO CRE-luciferase reporter cells); format: cell-based
# T2 construct: expressed in transfected cells; host or cells: CHO CRE-luciferase reporter cells
# T2 sequence (P48546 22-466): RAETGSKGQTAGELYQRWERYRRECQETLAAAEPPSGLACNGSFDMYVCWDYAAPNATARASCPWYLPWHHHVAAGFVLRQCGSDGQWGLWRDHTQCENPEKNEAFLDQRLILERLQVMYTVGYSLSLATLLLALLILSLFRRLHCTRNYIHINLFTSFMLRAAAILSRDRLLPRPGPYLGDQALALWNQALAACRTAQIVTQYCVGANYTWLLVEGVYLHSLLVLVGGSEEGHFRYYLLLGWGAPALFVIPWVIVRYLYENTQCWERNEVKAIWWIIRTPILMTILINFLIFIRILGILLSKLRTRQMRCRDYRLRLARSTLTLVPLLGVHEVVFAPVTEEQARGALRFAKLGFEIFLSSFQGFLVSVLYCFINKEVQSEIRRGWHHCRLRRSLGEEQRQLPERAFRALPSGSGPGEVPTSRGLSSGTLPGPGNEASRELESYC
# [1] = Solubility in 0.1 M phosphate buffer at pH 7; format: physicochemical; conditions: 0.1 M phosphate buffer at pH 7, 10 mg/mL final peptide concentration, shaking 2 hours at room temperature, peptides as TFA-salts, measured sample pH 6.5-7.0
# [2] = 0.5% human plasma, read-out: hGLP1R 0.5% hP
# [3] = 100% human plasma, read-out: hGLP1R 100% hP
# [4] = 0.5% human plasma, read-out: hGIPR 0.5% hP
# [5] = 100% human plasma, read-out: hGIPR 100% hP
EC50 (hGLP1R; [2]),EC50 (hGLP1R; [3]),EC50 (hGIPR; [4]),EC50 (hGIPR; [5]),solubility ([1]; read-out: Solubility),solubility at 2 h [1],SMILES
0.7 nM,7.1 nM,0.4 nM,19.3 nM,4400 µg/mL,,"CC[C@H](C)[C@H](NC(=O)[C@H](CC(C)C)NC(=O)[C@H](Cc1c[nH]cn1)NC(=O)[C@H](CCCNC(=N)N)NC(=O)[C@@H](NC(=O)[C@H](Cc1ccccc1)NC(=O)[C@H](CCC(=O)O)NC(=O)C(C)(C)NC(=O)[C@H](CCC(N)=O)NC(=O)[C@H](C)NC(=O)[C@H](CCC(N)=O)NC(=O)[C@H](CCCCN)NC(=O)[C@H](CCC(=O)O)NC(=O)[C@H](CC(C)C)NC(=O)C(C)(C)NC(=O)[C@@H](NC(=O)[C@H](CO)NC(=O)[C@H](Cc1ccc(O)cc1)NC(=O)[C@H](CC(=O)O)NC(=O)[C@H](CO)NC(=O)[C@@H](NC(=O)[C@H](Cc1ccccc1)NC(=O)[C@@H](NC(=O)CNC(=O)[C@H](CCC(=O)O)NC(=O)C(C)(C)NC(=O)[C@@H](N)Cc1ccc(O)cc1)[C@@H](C)O)[C@@H](C)O)[C@@H](C)CC)C(C)C)C(=O)N[C@@H](CC(N)=O)C(=O)N[C@@H](CCCCNC(=O)CC[C@H](NC(=O)CC[C@H](NC(=O)CC[C@H](NC(=O)CC[C@H](NC(=O)CC[C@H](NC(=O)CC[C@H](NC(=O)CCCCCCCCCCCCCCCCC(=O)O)C(=O)O)C(=O)O)C(=O)O)C(=O)O)C(=O)O)C(=O)O)C(=O)NC(C)(C)C(=O)N[C@H](C(=O)N[C@@H](CCCNC(=N)N)C(=O)N[C@@H](CCC(N)=O)C(=O)N[C@@H](CCCNC(=N)N)C(=O)N[C@@H](Cc1ccc(O)cc1)C(N)=O)[C@@H](C)O [Compound 56, Y-Aib-E-G-T-F-T-S-D-Y-S-I-Aib-L-E-K-Q-A-Q-Aib-E-F-V-R-H-L-I-N-K(1,3)-Aib-T-R-Q-R-Y-NH2.C18DA-gGlu-gGlu-gGlu-gGlu-gGlu-gGlu(1,2)]"
0.1 nM,0.6 nM,0.1 nM,1.7 nM,,8800 µg/mL,"CC[C@H](C)[C@H](NC(=O)[C@H](CC(C)C)NC(=O)[C@H](Cc1c[nH]cn1)NC(=O)[C@H](CCCNC(=N)N)NC(=O)[C@@H](NC(=O)[C@H](Cc1ccccc1)NC(=O)[C@H](C)NC(=O)C(C)(C)NC(=O)[C@H](CCC(N)=O)NC(=O)[C@H](C)NC(=O)[C@H](CCC(N)=O)NC(=O)[C@H](CCCCN)NC(=O)[C@H](CC(=O)O)NC(=O)[C@H](CC(C)C)NC(=O)[C@](C)(CC(C)C)NC(=O)[C@@H](NC(=O)[C@H](CO)NC(=O)[C@H](Cc1ccc(O)cc1)NC(=O)[C@H](CC(=O)O)NC(=O)[C@H](CO)NC(=O)[C@@H](NC(=O)[C@H](Cc1ccccc1)NC(=O)[C@@H](NC(=O)CNC(=O)[C@H](CCC(=O)O)NC(=O)C(C)(C)NC(=O)[C@@H](N)Cc1ccc(O)cc1)[C@@H](C)O)[C@@H](C)O)[C@@H](C)CC)C(C)C)C(=O)N[C@@H](CC(N)=O)C(=O)N[C@@H](CCCCNC(=O)[C@@H](N)CCCCNC(=O)CC[C@H](NC(=O)CC[C@H](NC(=O)CC[C@H](NC(=O)CC[C@H](NC(=O)CC[C@H](NC(=O)CC[C@H](NC(=O)CCCCCCCCCCCCCCCCC(=O)O)C(=O)O)C(=O)O)C(=O)O)C(=O)O)C(=O)O)C(=O)O)C(=O)NC(C)(C)C(=O)N[C@H](C(=O)N[C@@H](CCCNC(=N)N)C(=O)N[C@@H](CCC(N)=O)C(=O)N[C@@H](CCCNC(=N)N)C(=O)N[C@@H](Cc1ccc(O)cc1)C(N)=O)[C@@H](C)O [Compound 67, Y-Aib-E-G-T-F-T-S-D-Y-S-I-aMeL-L-D-K-Q-A-Q-Aib-A-F-V-R-H-L-I-N-K(1,3)-Aib-T-R-Q-R-Y-NH2.C18DA-gGlu-gGlu-gGlu-gGlu-gGlu-gGlu-eLys(1,2)]"
0.6 nM,,0.2 nM,,,4800 µg/mL,"CC[C@H](C)[C@H](NC(=O)[C@H](CC(C)C)NC(=O)[C@H](Cc1c[nH]cn1)NC(=O)[C@H](CCCNC(=N)N)NC(=O)[C@@H](NC(=O)[C@H](Cc1ccccc1)NC(=O)[C@H](C)NC(=O)C(C)(C)NC(=O)[C@H](CCC(N)=O)NC(=O)[C@H](C)NC(=O)[C@H](CCC(N)=O)NC(=O)[C@H](CCCCN)NC(=O)[C@H](CCC(=O)O)NC(=O)[C@H](CC(C)C)NC(=O)C(C)(C)NC(=O)[C@@H](NC(=O)[C@H](CO)NC(=O)[C@H](Cc1ccc(O)cc1)NC(=O)[C@H](CC(=O)O)NC(=O)[C@H](CO)NC(=O)[C@@H](NC(=O)[C@H](Cc1ccccc1)NC(=O)[C@@H](NC(=O)CNC(=O)[C@H](CCC(=O)O)NC(=O)C(C)(C)NC(=O)[C@@H](N)Cc1ccc(O)cc1)[C@@H](C)O)[C@@H](C)O)[C@@H](C)CC)C(C)C)C(=O)N[C@@H](C)C(=O)N[C@@H](CCCCNC(=O)[C@@H](N)CCCCNC(=O)CC[C@H](NC(=O)CC[C@H](NC(=O)CC[C@H](NC(=O)CC[C@H](NC(=O)CC[C@H](NC(=O)CC[C@H](NC(=O)CCCCCCCCCCCCCCCCC(=O)O)C(=O)O)C(=O)O)C(=O)O)C(=O)O)C(=O)O)C(=O)O)C(=O)NC(C)(C)C(=O)N[C@H](C(=O)N[C@@H](CCCNC(=N)N)C(=O)N[C@@H](CCC(N)=O)C(=O)N[C@@H](CCCNC(=N)N)C(=O)N[C@@H](Cc1ccc(O)cc1)C(N)=O)[C@@H](C)O [Compound 68, Y-Aib-E-G-T-F-T-S-D-Y-S-I-Aib-L-E-K-Q-A-Q-Aib-A-F-V-R-H-L-I-A-K(1,3)-Aib-T-R-Q-R-Y-NH2.C18DA-gGlu-gGlu-gGlu-gGlu-gGlu-gGlu-eLys(1,2)] (H-Y[Aib]EGTFTSDYSI[Aib]LEKQAQ[Aib]AFVRHLIAK([εLys-γGlu-γGlu-γGlu-γGlu-γGlu-γGlu-C18 diacid])[Aib]TRQRY-NH2; N-terminus assumed)"
0.2 nM,1.7 nM,0.1 nM,0.9 nM,,8800 µg/mL,"CC[C@H](C)[C@H](NC(=O)[C@H](CC(C)C)NC(=O)[C@H](Cc1c[nH]cn1)NC(=O)[C@H](CCCNC(=N)N)NC(=O)[C@@H](NC(=O)[C@H](Cc1ccccc1)NC(=O)[C@H](C)NC(=O)C(C)(C)NC(=O)[C@H](CCC(N)=O)NC(=O)[C@H](C)NC(=O)[C@H](CCC(N)=O)NC(=O)[C@H](CCC(=O)O)NC(=O)[C@H](CCC(=O)O)NC(=O)[C@H](CC(C)C)NC(=O)[C@](C)(CC(C)C)NC(=O)[C@@H](NC(=O)[C@H](CO)NC(=O)[C@H](Cc1ccc(O)cc1)NC(=O)[C@H](CC(=O)O)NC(=O)[C@H](CO)NC(=O)[C@@H](NC(=O)[C@H](Cc1ccccc1)NC(=O)[C@@H](NC(=O)CNC(=O)[C@H](CCC(=O)O)NC(=O)C(C)(C)NC(=O)[C@@H](N)Cc1ccc(O)cc1)[C@@H](C)O)[C@@H](C)O)[C@@H](C)CC)C(C)C)C(=O)N[C@@H](CC(N)=O)C(=O)N[C@@H](CCCCNC(=O)[C@@H](N)CCCCNC(=O)CC[C@H](NC(=O)CC[C@H](NC(=O)CC[C@H](NC(=O)CC[C@H](NC(=O)CC[C@H](NC(=O)CC[C@H](NC(=O)CCCCCCCCCCCCCCCCCCC(=O)O)C(=O)O)C(=O)O)C(=O)O)C(=O)O)C(=O)O)C(=O)O)C(=O)NC(C)(C)C(=O)N[C@H](C(=O)N[C@@H](CCCNC(=N)N)C(=O)N[C@@H](CCC(N)=O)C(=O)N[C@@H](CCCNC(=N)N)C(=O)N[C@@H](Cc1ccc(O)cc1)C(N)=O)[C@@H](C)O [Compound 89, Y-Aib-E-G-T-F-T-S-D-Y-S-I-aMeL-L-E-E-Q-A-Q-Aib-A-F-V-R-H-L-I-N-K(1,3)-Aib-T-R-Q-R-Y-NH2.C20DA-gGlu-gGlu-gGlu-gGlu-gGlu-gGlu-eLys(1,2)]"
0.7 nM,,0.5 nM,,,4900 µg/mL,"CC[C@H](C)[C@H](NC(=O)[C@H](CC(C)C)NC(=O)[C@H](Cc1c[nH]cn1)NC(=O)[C@H](CCCNC(=N)N)NC(=O)[C@@H](NC(=O)[C@H](Cc1ccccc1)NC(=O)[C@H](CCC(=O)O)NC(=O)C(C)(C)NC(=O)[C@H](CCC(N)=O)NC(=O)[C@H](C)NC(=O)[C@H](CCC(N)=O)NC(=O)[C@H](CCCCN)NC(=O)[C@H](CCC(=O)O)NC(=O)[C@H](CC(C)C)NC(=O)C(C)(C)NC(=O)[C@@H](NC(=O)[C@H](CO)NC(=O)[C@H](Cc1ccc(O)cc1)NC(=O)[C@H](CC(=O)O)NC(=O)[C@H](CO)NC(=O)[C@@H](NC(=O)[C@H](Cc1ccccc1)NC(=O)[C@@H](NC(=O)CNC(=O)[C@H](CCC(=O)O)NC(=O)C(C)(C)NC(=O)[C@@H](N)Cc1ccc(O)cc1)[C@@H](C)O)[C@@H](C)O)[C@@H](C)CC)C(C)C)C(=O)N[C@@H](CC(N)=O)C(=O)N[C@@H](CCCCNC(=O)COCCOCCNC(=O)COCCOCCNC(=O)CC[C@H](NC(=O)CC[C@H](NC(=O)CC[C@H](NC(=O)CC[C@H](NC(=O)CC[C@H](NC(=O)CCCCCCCCCCCCCCCCC(=O)O)C(=O)O)C(=O)O)C(=O)O)C(=O)O)C(=O)O)C(=O)NC(C)(C)C(=O)N[C@H](C(=O)N[C@@H](CCCNC(=N)N)C(=O)N[C@@H](CCC(N)=O)C(=O)N[C@@H](CCCNC(=N)N)C(=O)N[C@@H](Cc1ccc(O)cc1)C(N)=O)[C@@H](C)O [Compound 98, Y-Aib-E-G-T-F-T-S-D-Y-S-I-Aib-L-E-K-Q-A-Q-Aib-E-F-V-R-H-L-I-N-K(1,3)-Aib-T-R-Q-R-Y-NH2.C18DA-gGlu-gGlu-gGlu-gGlu-gGlu-OEG-OEG(1,2)]"
